Where two headings read alike, the source gives them in different places.
Key:
hM3 [1] = target: T1, hM3 (Homo sapiens, UniProt P20309); experiment: Competitive [3H]NMS radioligand binding, CHO-K1 membranes expressing hM3; settings: for Displacement ± SD hM3: displacement of [3H]NMS, single ligand concentration corresponding to a Ki value of 1 µM (Cheng-Prusoff)
Description: (§1) The arecaidine esters’ affinities towards the human mAChR subtypes hM1–hM5 were studied in a competitive radioligand binding assay using CHO-K1 cell membrane homogenates expressing a single mAChR subtype and tritiated N-methyl scopolamine methyl chloride ([^3H]NMS). To speed up our affinity testing regime, we subjected all test substances to preliminary single-concentration displacement assays, as described previously. Compounds with percent displacements below 75% at any of the subtypes were dropped from further investigations (Table S1). For compounds meeting the percent displacement threshold (8c, 10b, 10c, 17b, 18b, and 25), inhibition constants (Ki) were assessed in dose-dependent displacement experiments (Table 2).
(§2) Cell membranes bearing hM1-hM5 receptors were prepared as described previously. Briefly, stably transfected CHO-K1 cells were grown to at least 80% confluency in T175 flasks, washed with ice-cold DPBS, and scraped into a mixture of ice-cold 2 mL 10 mM Tris-HCl, 1 mM EDTA-buffer, pH 7.4 and 200 µL protease inhibitor. A cell homogenate was prepared by passing the cell suspension through a G29 needle. The cell homogenates corresponding to two T175 flasks were combined and subsequently centrifuged (10 min, 1000× g, 4 °C). Ultracentrifugation of the supernatant (1 h, 100,000× g, 4 °C) yielded a membrane pellet, which was suspended in 250 µL 50 mM Tris-HCl buffer, pH 7.4 and stored at −80 °C.
(§3) Then, 5 µL of test compound in DMSO, 50 µL of [^3H]NMS in assay buffer, and 445 µL of membrane suspension in assay buffer were incubated for 90 min at 23 °C in PP tubes. Maximum binding was measured by using 5 µL DMSO, and nonspecific binding was measured by using 5 µL of 1 µM scopolamine in DMSO. The effective concentration of [^3H]NMS was 0.2 nM, 0.3 nM, 0.8 nM, 0.2 nM, and 1 nM for M1–M5 and 4–30 µg membrane were used per tube. The membrane-bound radioactivity was recovered by filtration through Whatman™ GF/B glass fiber filters presoaked in aqueous 0.1% PEI using an M-36 tygon tubed cell harvester (Brandel®, Gaithersburg, MD, USA). Membranes were washed three times with ice-cold washing buffer (50 mM Tris, pH 7.4) before being dried, transferred to 2 mL scintillation cocktail (UltimaGold™, high flashpoint LSC cocktail, PerkinElmer, Waltham, MA, USA) and counted in a β-counter (Hidex TDCR liquid scintillation counter in CPM mode). IC50 values were calculated by a variable slope logistic regression using at least five distinct concentrations of test compounds, pipetted in triplicates.

hM4 [2] = target: T2, hM4 (Homo sapiens, UniProt P08173); experiment: Competitive [3H]NMS radioligand binding, CHO-K1 membranes expressing hM4; settings: for Displacement ± SD hM4: displacement of [3H]NMS, single ligand concentration corresponding to a Ki value of 1 µM (Cheng-Prusoff)
T2 sequence (P08173 1-479): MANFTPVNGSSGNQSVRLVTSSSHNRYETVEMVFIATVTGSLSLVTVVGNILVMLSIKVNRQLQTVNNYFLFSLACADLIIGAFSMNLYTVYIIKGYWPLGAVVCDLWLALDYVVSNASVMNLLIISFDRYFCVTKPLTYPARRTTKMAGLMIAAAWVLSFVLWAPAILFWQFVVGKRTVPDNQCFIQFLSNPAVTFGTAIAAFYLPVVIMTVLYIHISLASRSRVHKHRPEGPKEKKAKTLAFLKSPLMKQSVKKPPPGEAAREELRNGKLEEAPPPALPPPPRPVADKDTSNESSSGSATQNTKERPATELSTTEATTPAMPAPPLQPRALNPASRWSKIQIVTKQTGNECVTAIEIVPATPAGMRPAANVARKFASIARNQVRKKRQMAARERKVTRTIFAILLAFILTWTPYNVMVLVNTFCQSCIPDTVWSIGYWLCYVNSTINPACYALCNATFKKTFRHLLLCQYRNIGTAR
Description: as §1, §2, §3

hM2 [3] = target: T3, hM2 (Homo sapiens, UniProt P08172); experiment: Competitive [3H]NMS radioligand binding, CHO-K1 membranes expressing hM2; settings: for Displacement ± SD hM2: displacement of [3H]NMS, single ligand concentration corresponding to a Ki value of 1 µM (Cheng-Prusoff)
T3 sequence (P08172 1-466): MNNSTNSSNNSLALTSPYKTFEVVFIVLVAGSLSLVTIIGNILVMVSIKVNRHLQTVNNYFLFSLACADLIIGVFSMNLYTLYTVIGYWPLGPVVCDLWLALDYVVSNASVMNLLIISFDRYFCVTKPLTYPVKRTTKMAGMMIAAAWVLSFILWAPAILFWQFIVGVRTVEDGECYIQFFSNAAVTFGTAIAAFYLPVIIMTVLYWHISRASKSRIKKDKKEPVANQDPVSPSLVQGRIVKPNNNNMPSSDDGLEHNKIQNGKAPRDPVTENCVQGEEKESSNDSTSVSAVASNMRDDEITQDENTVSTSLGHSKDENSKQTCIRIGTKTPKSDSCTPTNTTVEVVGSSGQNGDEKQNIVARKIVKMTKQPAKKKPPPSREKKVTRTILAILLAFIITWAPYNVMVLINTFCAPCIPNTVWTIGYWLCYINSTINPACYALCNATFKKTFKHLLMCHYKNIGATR
Description: as §1, §2, §3

hM1 [4] = target: T4, hM1 (Homo sapiens, UniProt P11229); experiment: Competitive [3H]NMS radioligand binding, CHO-K1 membranes expressing hM1; settings: for Displacement ± SD hM1: displacement of [3H]NMS, single ligand concentration corresponding to a Ki value of 1 µM (Cheng-Prusoff)
T4 sequence (P11229 1-460): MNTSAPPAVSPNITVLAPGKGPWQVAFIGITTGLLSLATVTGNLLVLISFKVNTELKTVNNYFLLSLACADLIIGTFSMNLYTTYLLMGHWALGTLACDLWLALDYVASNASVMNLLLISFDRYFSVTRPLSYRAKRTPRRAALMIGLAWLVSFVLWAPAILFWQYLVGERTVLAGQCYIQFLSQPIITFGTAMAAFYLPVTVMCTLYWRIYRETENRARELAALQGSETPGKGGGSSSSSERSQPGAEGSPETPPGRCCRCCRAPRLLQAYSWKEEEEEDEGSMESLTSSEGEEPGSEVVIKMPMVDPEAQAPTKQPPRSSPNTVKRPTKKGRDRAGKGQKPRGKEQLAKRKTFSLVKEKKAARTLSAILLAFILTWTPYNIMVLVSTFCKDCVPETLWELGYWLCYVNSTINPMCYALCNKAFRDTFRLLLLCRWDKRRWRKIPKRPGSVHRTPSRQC
Description: as §1, §2, §3

[5] = High-throughput HPLC-logD; type: physicochemical; settings: octadecyl-poly(vinyl alcohol) column, methanol / 0.01 M sodium phosphate buffer pH 7.4
Description: For this, logD values were estimated in an HPLC-based high-throughput assay employing an octadecyl-poly(vinyl alcohol) stationary phase. The absence of silanol groups renders this type of column especially suited in case of analytes with hydrogen bond donor capabilities as it avoids overestimating their lipophilicity.
Briefly, a mixture of toluene (≥98%, Sigma-Aldrich, St. Louis, MO, USA) and triphenylene (≥99.9%, Carl Roth, Karlsruhe, Germany) was used as internal standard. Samples were dissolved in the internal standard mixture. Using gradient elution, the injection volume was set to 7 µL, the flow rate was 1.5 mL/min, and the mobile phase consisted of a mixture of methanol and 0.01 M sodium phosphate buffer pH 7.4. The HPLC-logD values were derived from the measured retention times following the previously published equation [21, 40].

hM5 [6] = target: T5, hM5 (Homo sapiens, UniProt P08912); experiment: Competitive [3H]NMS radioligand binding, CHO-K1 membranes expressing hM5; settings: for Displacement ± SD hM5: displacement of [3H]NMS, single ligand concentration corresponding to a Ki value of 1 µM (Cheng-Prusoff)
T5 sequence (P08912 1-532): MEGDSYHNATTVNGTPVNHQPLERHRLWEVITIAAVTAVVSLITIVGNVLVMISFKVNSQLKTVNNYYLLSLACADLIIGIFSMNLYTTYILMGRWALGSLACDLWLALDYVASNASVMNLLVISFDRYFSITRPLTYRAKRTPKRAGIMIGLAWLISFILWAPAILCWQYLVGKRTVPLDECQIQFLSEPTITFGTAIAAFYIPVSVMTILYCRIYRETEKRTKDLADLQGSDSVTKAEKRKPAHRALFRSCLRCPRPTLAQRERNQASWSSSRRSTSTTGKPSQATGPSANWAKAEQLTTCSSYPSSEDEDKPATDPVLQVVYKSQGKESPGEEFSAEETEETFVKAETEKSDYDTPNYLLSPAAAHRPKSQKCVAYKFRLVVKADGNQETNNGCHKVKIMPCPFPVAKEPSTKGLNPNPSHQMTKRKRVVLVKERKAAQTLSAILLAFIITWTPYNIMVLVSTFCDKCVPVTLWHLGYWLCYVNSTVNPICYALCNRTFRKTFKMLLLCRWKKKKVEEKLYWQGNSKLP
Description: as §1, §2, §3

hM5 [7] = target: T5, hM5; set-up: method as in Ozenil et al. [10]; settings: [3H]NMS; ref Ozenil et al. [10]; read-out: Affinity: Ki ± SD hM5; cited from earlier work
hM3 [8] = target: T1, hM3; set-up: method as in Ozenil et al. [10]; settings: [3H]NMS; ref Ozenil et al. [10]; read-out: Affinity: Ki ± SD hM3; cited from earlier work
hM4 [9] = target: T2, hM4; set-up: method as in Ozenil et al. [10]; settings: [3H]NMS; ref Ozenil et al. [10]; read-out: Affinity: Ki ± SD hM4; cited from earlier work
hM2 [10] = target: T3, hM2; set-up: method as in Ozenil et al. [10]; settings: [3H]NMS; ref Ozenil et al. [10]; read-out: Affinity: Ki ± SD hM2; cited from earlier work
hM1 [11] = target: T4, hM1; set-up: method as in Ozenil et al. [10]; settings: [3H]NMS; ref Ozenil et al. [10]; read-out: Affinity: Ki ± SD hM1; cited from earlier work
[12] = set-up: method as in Ozenil et al. [10]; settings: ref Ozenil et al. [10]; cited from earlier work

T1 sequence (P20309 whole entry): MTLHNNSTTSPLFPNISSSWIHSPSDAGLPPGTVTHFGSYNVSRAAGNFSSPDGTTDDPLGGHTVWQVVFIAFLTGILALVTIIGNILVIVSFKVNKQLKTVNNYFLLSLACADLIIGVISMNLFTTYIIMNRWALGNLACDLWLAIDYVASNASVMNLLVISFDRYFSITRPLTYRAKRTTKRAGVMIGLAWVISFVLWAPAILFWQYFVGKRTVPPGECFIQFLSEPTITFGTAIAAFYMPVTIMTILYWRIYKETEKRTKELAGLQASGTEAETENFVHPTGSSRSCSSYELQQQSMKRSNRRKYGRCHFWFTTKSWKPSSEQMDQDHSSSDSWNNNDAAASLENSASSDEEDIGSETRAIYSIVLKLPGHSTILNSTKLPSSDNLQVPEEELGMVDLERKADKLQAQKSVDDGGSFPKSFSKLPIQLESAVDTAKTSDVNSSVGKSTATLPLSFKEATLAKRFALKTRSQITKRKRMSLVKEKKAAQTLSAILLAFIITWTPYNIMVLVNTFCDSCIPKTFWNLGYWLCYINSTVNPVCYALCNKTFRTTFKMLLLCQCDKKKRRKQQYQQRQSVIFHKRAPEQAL

| SMILES | chromatographic logD [5] | Displacement ± SD hM3 (hM3 [1]) [%] | Displacement ± SD hM4 (hM4 [2]) [%] | Displacement ± SD hM2 (hM2 [3]) [%] | Displacement ± SD hM1 (hM1 [4]) [%] | Displacement ± SD hM5 (hM5 [6]) [%] | further results |
| --- | --- | --- | --- | --- | --- | --- | --- |
| CN1CCC=C(C(=O)Oc2ccccc2-c2ccccc2O)C1 [Compound 27, 2′-hydroxy-[1,1′-biphenyl]-2-yl 1-methyl-1,2,5,6-tetrahydropyridine-3-carboxylate] | 2.69 ± 0.01 | 51 ± 9 | 46 ± 3 | 34 ± 7 | 37 ± 6 | 65 ± 11 | melting point: 142 to 144 °C |
| CN1CCC=C(C(=O)OC(c2ccccc2)c2ccccc2)C1 [DPMA, benzhydryl 1-methyl-1,2,5,6-tetrahydropyridine-3-carboxylate] | – | – | – | – | – | – | Ki (hM5 [7]): 0.014 ± 0.001 µM; Ki (hM3 [8]): 0.056 ± 0.022 µM; Ki (hM4 [9]): 0.016 ± 0.004 µM; x-Fold Selectivity for hM1 vs. hM2 (hM1 [4]; ratio of the Ki values hM2/hM1): 35.5 x-fold; x-Fold Selectivity for hM1 vs. hM3 (hM1 [4]; ratio of the Ki values hM3/hM1): 18.1 x-fold; x-Fold Selectivity for hM1 vs. hM4 (hM1 [4]; ratio of the Ki values hM4/hM1): 5.2 x-fold; x-Fold Selectivity for hM1 vs. hM5 (hM1 [4]; ratio of the Ki values hM5/hM1): 4.5 x-fold; Ki (hM2 [10]): 0.11 ± 0.039 µM; Ki (hM1 [11]): 0.0031 ± 0.0005 µM; HPLC-logD [12]: 3.32 ± 0.04 ^2 |
| CN1CCC=C(C(=O)OC(CO)c2ccccc2)C1 (centres unmarked) [Compound 22, 2-hydroxy-1-phenylethyl 1-methyl-1,2,5,6-tetrahydropyridine-3-carboxylate] | 0.92 ± 0.08 | 33 ± 8 | 51 ± 5 | 28 ± 5 | 61 ± 2 | 72 ± 5 | – |
| CN1CCC=C(C(=O)OCc2cccc(CO)c2)C1 [Compound 8b, 3-(hydroxymethyl)benzyl 1-methyl-1,2,5,6-tetrahydropyridine-3-carboxylate] | 0.87 ± 0.01 | 34 ± 4 | 22 ± 1 | 23 ± 4 | 31 ± 3 | 29 ± 6 | – |

Now from value to compound, other results behind:

| chromatographic logD [5] | SMILES | Displacement ± SD hM3 (hM3 [1]) [%] | Displacement ± SD hM4 (hM4 [2]) [%] | Displacement ± SD hM2 (hM2 [3]) [%] | Displacement ± SD hM1 (hM1 [4]) [%] | Displacement ± SD hM5 (hM5 [6]) [%] | further results |
| --- | --- | --- | --- | --- | --- | --- | --- |
| 0.79 ± 0.01 | CN1CCC=C(C(=O)OCc2ccccc2CO)C1 [Compound 8a, 2-(hydroxymethyl)benzyl 1-methyl-1,2,5,6-tetrahydropyridine-3-carboxylate] | 72 ± 4 | 56 ± 9 | 43 ± 2 | 66 ± 5 | 72 ± 3 | – |
| 2.6 ± 0.1 | CN1CCC=C(C(=O)OC(c2ccccc2)c2cccc(CO)c2)C1 (centres unmarked) [Compound 10b, (3-(hydroxymethyl)phenyl)(phenyl)methyl 1-methyl-1,2,5,6-tetrahydropyridine-3-carboxylate] | – | – | – | – | – | Ki (hM3 [1]; [3H]NMS, CHO-hM3 cell membrane preparations, read-out: Affinity: Ki ± SD hM3): 0.0704 ± 0.0018 µM; Ki (hM4 [2]; [3H]NMS, CHO-hM4 cell membrane preparations, read-out: Affinity: Ki ± SD hM4): 0.0323 ± 0.0038 µM; Ki (hM2 [3]; [3H]NMS, CHO-hM2 cell membrane preparations, >1000 values from two independent (single-concentration) experiments, read-out: Affinity: Ki ± SD hM2): 0.198 ± 0.035 µM; Ki (hM1 [4]; [3H]NMS, CHO-hM1 cell membrane preparations, read-out: Affinity: Ki ± SD hM1): 0.0125 ± 0.0008 µM; Ki (hM5 [6]; [3H]NMS, CHO-hM5 cell membrane preparations, read-out: Affinity: Ki ± SD hM5): 0.0491 ± 0.0085 µM |

— article PMC9145622, “Synthesis, Biological Evaluation, and Docking Studies of Antagonistic Hydroxylated Arecaidine Esters Targeting mAChRs” (Molecules, 2022)
